Values joined by “and” are separate entries in the source; they are usually repeats but may differ in a detail not shown here. Equal values may be shown once.
Experiments:
[1] = test system: one GAD patient, a person; assay: Example 11: alprazolam with neuromodulators in one GAD patient; format: in vivo, human
Experimental: The study was performed on one GAD patient. Fourteen days prior to the first treatment session, the subject was screened with a standard medical/psychiatric history and physical exam. The subject was rated on the Hamilton Anxiety Scale the Stanford Sleepiness Scale (SSS).
During their second visit, immediately prior to administration of alprazolam and placebo, the subject was rated on the Hamilton Anxiety Scale, Quality of Life Questionaire and SSS (pre dose, time 0). Following these tests, the subject received a regular morning alprazolam dose and placebo to mimic pseudoephedrine. Fifteen minutes later, the subject received approximately 120 ml of water and placebo to mimic guaifenesin. The subject was rated on the SSS at 2 hours (anticipated peak plasma concentration) and 4 hours following administration alprazolam. The subject was given enough placebo medication to last for one week (until Visit 3) with the exact instructions to take their medications in the same manner as described above. During this 7-day period, the subject completed an SSS questionaire (Table 16, Placebo). Ratings on the SSS were recorded immediately before (pre) and 3 hours following (post) administration of alprazolam.
During Visit 3, the subject was rated on the Hamilton Anxiety Scale, Quality of Life Questionaire, and SSS 3 hours after initial dose. The subject was then given the active neuromodulators and told to start with them on the next day following ingestion of the regular alprazolam medication. The subject took pseudoephedrine with alprazolam and Mucinex 15 minutes later (neuromodulators were given no more than twice a day and not after 6 PM). Three hours after each dose, the subject recorded their SSS measurements (Table 16, Treatment). […] Throughout this week, the subject recorded SSS scores of 1 (high alertness, no sedatition).

[2] = parent drug; cited from earlier work
four healthy volunteers = assay: Example 7: Stanford Sleepiness Scale study with alprazolam; format: in vivo, human; settings: for time until subjects were asleep: all four subjects; for 2 Hr SSS / 4 Hr SSS / 6 Hr SSS: individual subjects
Experimental: The research study was performed on four healthy volunteers, ages 25-41 years old and 60-75 kg. The study was carried out in two sessions with one week in between. During the study volunteers completed a test to measure sleepiness by Stanford Sleepiness Scale (SSS). This SSS test was done before doses of the compositions being evaluated and 2, 4 and 6 hours after such doses (see FIG. 5 for an illustration of the study scheme).
At the first session, volunteers received the treatment (Alprazolam 1.0 mg)+PLAC (placebo)+ and 15 minutes later another PLAC. […] Their SSS score at 2 hour time point was 6 (woozy, fighting sleep). […] The other 2 patients slept through the 2, 4 and 6 hour testing.
At the second study session, volunteers received the treatment (Alprazolam 1.0 mg+60 mg of pseudoephedrine) and 15 minutes later received 400 mg of guaifenesin. […] After 2 and half hours, three out of the four subjects woke up and stayed awake for the rest of the time. Their SSS scores for 4 hour time point test were 2, 3 and 5, for 6 hour time point test SSS scores were 1, 3, 2. The fourth subject woke up for the 6 hour time point test and their SSS score was 3.

[3] = CNS active agent; cited from earlier work
[4] = test system: 8 patients suffering from GAD; assay: Example 10: single blind trial of alprazolam with neuromodulators in GAD; format: in vivo, human; settings: alprazolam 1 mg with pseudoephedrine 60 mg, guaifenesinER 600 mg 15 minutes later; one week
Experimental: The study was a single blind trial in which a panel of 8 patients suffering from GAD were administered alprazolam (1 mg), pseudoephedrine (60 mg), and guaifenesinER (600 mg). Subjects underwent an initial screening and then two weeks of testing with the medications of the study (see FIG. 7 for an illustration of the study scheme). Fourteen days prior to the first treatment session, subjects were screened with a standard medical/psychiatric history and physical exam (Screening Visit, Visit 1). Standard laboratory tests were performed at Screening Visit 1 including those of chemistry, hematology and urinalysis, urine test for drugs of abuse, HIV and hepatitis B and C serology tests, 12-lead resting electrocardiogram, and serum pregnancy test for females.
Prior to administration of the placebo treatment, the subjects were rated on the Hamilton Anxiety Scale, Quality of Life Questionnaire, and the Stanford Sleepiness Scale (SSS) (Visit 2, data not shown). Subjects complained of oversedation (SSS score of 4 or greater) from their psychopharmacologic regimen, which included benzodiazepine or alprazolam therapy.
Subjects were given a placebo medication that mimics the two neuromodulators for 7 days and underwent another series of tests at the end of this 7-day period (Visit 3). […]

[5] = First Visit Day on Placebo: Alprazolam 1.0 mg + placebo
[6] = First Visit Day on Placebo: Alprazolam 1.0 mg + placebo, listed as alprazolam
[7] = Second Visit Day on Active Neuromodulation: Alprazolam 1.0 mg + 60 mg pseudoephedrine, 400 mg guaifenesin 15 minutes later
[8] = Second Visit Day on Active Neuromodulation: Alprazolam 1.0 mg + 60 mg pseudoephedrine, 400 mg guaifenesin 15 minutes later, listed as alprazolam

Cc1nnc2n1-c1ccc(Cl)cc1C(c1ccccc1)=NC2 [Alprazolam]
alertness and sedation by SSS, in words ([1]; 7-day period on alprazolam + placebo): significantly reduced alertness and increased sedation
SSS Score ([1]; Placebo (alprazolam + placebo), post: 3 hours following alprazolam, Days 1-7): X - asleep
SSS Score ([1]; Placebo column, 3 h post dose (before Day 1)): X - asleep
SSS Score ([1]; Placebo column, Screen): 6
SSS Score ([1]; Treatment (alprazolam + pseudoephedrine, Mucinex 15 minutes later), post: three hours after dose, Days 8-15): 1
SSS Score ([1]; Treatment (alprazolam + pseudoephedrine, Mucinex 15 minutes later), pre, Days 10-15): 1
efficacy by Hamilton Anxiety Scale ([1]; alprazolam + active neuromodulators): did not show any reduction in the efficacy
SSS data relative to placebo treatment, in words ([1]; week on alprazolam + active neuromodulators): dramatic improvement relative to the placebo treatment
Elimination Half-Life [2]: 6 to 12 h
time until subjects were asleep (four healthy volunteers; Alprazolam 1.0 mg + placebo): within an hour and a half
time until subjects were asleep (four healthy volunteers; Alprazolam 1.0 mg + pseudoephedrine, guaifenesin 15 minutes later): within an hour and a half
2 Hr SSS (four healthy volunteers; [5]): 6
4 Hr SSS (four healthy volunteers; [5]): 6
2 Hr SSS (four healthy volunteers; [6]): X - asleep (3×) and 6
4 Hr SSS (four healthy volunteers; [6]): X - asleep (3×) and 6
6 Hr SSS (four healthy volunteers; [6]): X - asleep (3×) and 3
2 Hr SSS (four healthy volunteers; [7]): X - asleep
4 Hr SSS (four healthy volunteers; [7]): 2 and 3 and 5
6 Hr SSS (four healthy volunteers; [7]): 1 and 3 and 2
4 Hr SSS (four healthy volunteers; [8]): 2 and X - asleep and 5 and 3
6 Hr SSS (four healthy volunteers; [8]): 1 and 3 (2×) and 2
total sleep time (four healthy volunteers; second session, Alprazolam administrated with neuromodulators, all four patients): 1.5 to 2.5 h
Tmax [3]: 1 to 2 h
bioactivity [3]: 55%
sedation-related effects as measured by the SSS [4]: significantly reduced

Reference: patent US9579299B2, “CNS pharmaceutical compositions and methods of use” (TARGIA PHARMACEUTICALS, priority 2008, dated 2017)
